Measurements from US20070172425A1, “Testing cell cycle regulation effect of a compound using a hollow fibre cell implant” (priority 2003, published 2007).
Where “and” joins values, the source holds several entries; their conditions need not be identical. Equal values may be shown once.

Key:
[1] = system: tumor; details: 100 and 200 mg/kg, intraperitoneal injection, literature; cited from earlier work
[2] = system: HCT116 cells; test: Inhibition of topotecan induced G2 arrest in vitro (FACS); type: cell-based; details: for inhibition of topotecan induced G2 arrest: 24 h
Method: (§3) The compounds were added to the cells after G2 arrest induced by 18 h topotecan treatment at the indicated concentrations and incubated for a period of 24 h. Cells were then harvested and analyzed by FACS.
(§4) Fixed cells were centrifuged at 1600 rpm for 5 minutes and the ETOH was decanted. They were then washed with 2 ml of PBS, recentrifuged and decanted. The cells were then stained with propidium iodide. Cell cycle study was performed using a FACSCalibur (Becton Dickinson) using Cell-QuestPro software. Cell cycle distribution was determined using either Modfit (Verity software house, ME, USA) or WinMDI (Joseph Trotter, Scripps Institute) software.

[3] = system: HCT116 cells; test: In vivo hollow fibre PD model, topotecan G2 arrested cells implanted in mice (FACS); details: for 0 h G2 % / 24 h % G1 / 24 h % G2 / Δ% G2/ Δ% G1 / SΔ % G2: Control TOP (vehicle); for SΔ % G2: % G2 at 24 h - % G2 at 0 h
Method: Specifically, HCT116 cells were first arrested at G2 with topotecan (TOP) treatment. At the end of 18 h topotecan treatment, fibres were implanted subcutaneously to mice with 4 fibres per mouse (FIG. 3A). Control fibres without topotecan treatment were also included (FIGS. 3F, G). […] The first injection was administered immediately after fibre implantation while the second injection was given 5 hours later. Mice in the TOP alone control group (n=2) received vehicle (0.9% NaCl) only (FIG. 3D). After implantation, fibres (8 fibres per time point) were retrieved from mice at indicated time points. Cells were then flushed out from the fibres and analyzed by FACS and immunoblotting.
At indicated time points, fibres were removed from mice, wiped with gauze and placed in petri dishes or 6 well plates containing enough warm media to cover fibres. Both ends of the fibres were then cut open using forceps and scissors. The fibres were flushed twice with a 200 μL pipette filled with medium by inserting into fibre opening. The medium containing the cells were collected and centrifuged for 3-minutes at 1600 rpm. The supernatant was discarded and 1 mL of trypsin was added onto the pellets and mixed until single cell suspension is obtained. Then, 5 mL of serum rich medium was added to the cell suspension and centrifuged. The supernatant was then decanted leaving approximately 200 μL of cell suspension. The suspension was then added. drop wise while vortexing to 5 mL of ice cold 70% ETOH. Cells were then fixed at −20° C. for a minimum of 1 hour. The cells obtained were then processed according to FACS staining protocol. 3-8 fibres from each time point were typically used for FACS analysis.

[4] = system: H460 cells; test: Inhibition of topotecan induced G2 arrest in vitro (FACS); type: cell-based; details: 24 h
Method: as §3, §4

[5] = system: HCT116 cells; test: Double thymidine block and G2 arrest with brief topotecan treatment in vitro; type: cell-based; details: 1 h treatment, 24 h after block removal
Method: We adapted the study of G2 checkpoint regulation to the study of other cell cycle regulation pathways. Cells were first synchronized at the G1/S boundary by means of a double thymidine block (FIG. 7A-F). After synchronization, cells were harvested at indicated time points for observation of cell cycle progression (7B, C). To arrest cells at G2 checkpoint, the synchronized cells were incubated with topotecan at indicated concentrations for 1 h, and the topotecan was added 30 to 60 minutes after the release of double thymidine block. Topotecan treated cells were then harvested 24 h after double thymidine block and analyzed with FACS. Alternatively, at the end of double thymidine block, fibres were implanted to mice subcutaneously (4 fibres per mouse); fibres were retrieved from mice at the specified time points (8 fibres per time point) and analyzed by FACS. Control fibers without double thymidine treatment (8A, F) were also included.
Cells were plated onto 10-cm dishes on day 1 such that 30% confluence is reached on day 2. In hollow fibre experiments, loaded fibres were made on day 1, and incubated in the dishes overnight. On day 2, thymidine was added to the dishes to a final concentration of 2 mM. […] Cells were harvested 24 hours after the second thymidine treatment, and analyzed by FACS analysis. […]

[6] = system: HCT116 cells; test: Topotecan induced G2 arrest in vitro (topotecan titration, FACS); type: cell-based
Method: (§1) To perform the experiments, cells were grown to 50% confluency in 10 cm dishes. The cells were then dosed with topotecan at indicated concentrations for 18 hours. Cells were then harvested and the G2 arrest was analyzed by FACS analysis 24 h later.
(§2) The cells were then stained with propidium iodide.

[7] = system: H460 cells; test: as above; type: cell-based
Method: as §1, §2

[8] = TOP alone (50 nM, 18 h), 30 h, mean
[9] = TOP alone (50 nM, 18 h), 30 h, single replicates, listed as TOP

Cn1c(=O)c2c(ncn2C)n(C)c1=O [Caffeine]
sensitization of tumor to radiotherapy by inhibiting radiation induced G2 arrest [1]: sensitize tumor to radiotherapy
inhibition of topotecan induced G2 arrest ([2]; 4 mM, HCT116): significantly inhibits topotecan induced G2 arrest
inhibition of topotecan induced G2 arrest in tumor cells in vivo ([3]; systemic injection to mice): inhibit topotecan induced G2 arrest
inhibition of topotecan induced G2 arrest ([4]; 4 mM, H460): significantly inhibits topotecan induced G2 arrest

Cn1c2ccccc2c2c3c(c4c5ccccc5n(CCC#N)c4c21)CNC3=O [Go6976]
inhibition of topotecan induced G2 arrest ([2]; 1.3 μM, HCT116 (FIG. 2H)): effectively inhibits G2 arrest
toxicity to cells (microscope, FACS) ([2]; Go6976 alone at the tested concentration): does not show any signs of toxicity
inhibition of topotecan induced G2 arrest ([4]; 5 μM, H460 (FIG. 2D)): effectively inhibits G2 arrest

CC[C@@]1(O)C(=O)OCc2c1cc1n(c2=O)Cc2cc3c(CN(C)C)c(O)ccc3nc2-1 [Topotecan]
G2 arrest of double thymidine block synchronized cells ([5]; 2 μM): complete G2 arrest
S phase arrest of double thymidine block synchronized cells ([5]; 5 μM): noticeable S phase arrest
time at which cells begin to reenter the cell cycle after topotecan treatment ([6]; HCT116): ~9 h
minimal concentration required to achieve an efficient G2 arrest ([6]; HCT116, 18 h treatment): 25 nM
time at which cells begin to reenter the cell cycle after topotecan treatment ([7]; H460): about 7 h
concentration that sufficiently arrests cells at the G2 checkpoint ([7]; H460, 18 h treatment): 50 nM
G2 arrest at 30 hour after implantation ([3]; 30 nM topotecan, 30 h): ~70%
cells arrested at G2/M phase at time 0 h ([3]; 50 nM topotecan 18 h, HCT116 in hollow fibres, 0 h): About 90%
G2 arrest at 30 hour after implantation ([3]; 50 nM topotecan, 30 h): about 90%
0 h G2 % ([3]; Exp. 1, 0 h): 83.00%
24 h % G1 ([3]; Exp. 1, 24 h): 23.00%
24 h % G2 ([3]; Exp. 1, 24 h): 71.00%
Δ% G2/ Δ% G1 ([3]; Exp. 1, 24 h): 3.09
SΔ % G2 ([3]; Exp. 1): −12.00%
0 h G2 % ([3]; Exp. 2, 0 h): 69.00%
24 h % G1 ([3]; Exp. 2, 24 h): 16.00%
24 h % G2 ([3]; Exp. 2, 24 h): 58.00%
Δ% G2/ Δ% G1 ([3]; Exp. 2, 24 h): 3.63
SΔ % G2 ([3]; Exp. 2): −11.00%
% G1, Mean [3, 8]: 7.9%
% G2, Mean [3, 8]: 88.7%
Odd (% G2/% G1), Mean [3, 8]: 11.4
% G1 [3, 9]: 7.3% and 7.2% and 9.0%
% G2 [3, 9]: 88.1% and 90.2% and 87.9%
Odd (% G2/% G1) [3, 9]: 12.0 and 12.5 and 9.7
Odd ratio ([3]; TOP alone, reference group): 1.0
